The subject of one assay is Puccinia recondita. Kind of assay: Leaf disc mixture assay with malonomicin, Puccinia recondita, preventive spray timing, 8 dpi. It counts as in vivo, Puccinia recondita on wheat (cultivar Kanzler). The following applies: compound of Formula I(a) lines 1-A to 2-D = 200, 100, 50, 25, 12.5, 6.25, 3.13, 0 ppm. Here is the method: A stock solution for the lipopeptide compound of Formula I(a) was produced in DMSO (max. 10 mg/ml). Malonomicin was produced according to Law et al, 2018 (Nature Catalys is |VOL 1|DECEMBER 2018|977-984). A stock solution of malonomicin was produced in water plus 0.025% Tween®20.
Assays to test efficacy of mixtures of compound of Formula I(a) in combination with malonomicin on the control of fungal pathogens in a leaf disc assay were designed for two 24well plates.
Table 22 and Table 23. Outline of 24well testplate (1) and testplate (2) including concentration of compounds sprayed per well. The upper number in the cell indicates compound of Formula I(a) concentration (ppm), the lower number malonomicin concentration (ppm). Column (1) holds a dilution series of compound of Formula I(a), row (2-D) hold a dilution series of malonomicin. Well 2-D-(1) represents an untreated check. This design was applied for tests including Puccinia recondita (EPPO code: PUCCRE) with preventive and curative spray timing.
A first set of master plates with 1× concentrated spray solution of the lipopeptide compound of Formula I(a) stock diluted in water with concentrations according to table 22, table 23, table 25 or table 26, respectively, was prepared. Each well contained 2% DMSO and 0.025% Tween20. Accordingly, a second set of master plates with 1× concentrated malonomicin stock diluted in water was prepared. Each well of the second set contained 0.025% Tween20. Leaf segments placed on agar in 24well plates were sprayed with 8 μl of solution from the master plate containing the lipopeptide compound of Formula I(a) and the leaf segments were let to dry, followed 2 hours later by 8 μl of solution from the master plate containing malonomicin. After second sprays had dried, leaf segments were infected with fungal spores to obtain a preventive application timing. Alternatively, leaf segments infected one day before spray of the compounds were used, resulting in a curative spray timing. In addition, several plates were produced where leaf segments were sprayed 2× in absence of test compound (with only DMSO and Tween20), representing the untreated check samples. For each leaf segment percent leaf coverage of disease symptoms was assessed. Percent leaf coverage reduction relative to the untreated check was calculated. Efficacy of the mixtures was tested in duplicate and on different fungal species. Reported efficacy values are the average of two replicate results.
Puccinia recondita (EPPO Code: PUCCRE) with Preventive Spray Timing.
Wheat (cultivar Kanzler) leaf segments are placed on agar in multiwell plates (24-well format) and sprayed with test solutions (8 ul per well). After drying, the leaf disks are inoculated with a spore suspension of the fungus. After appropriate incubation the activity of a compound is assessed 8 dpi (days after inoculation) as preventive fungicidal activity.

Another assay concerns Botrytis cinerea. Put plainly: Liquid culture 96-well mixture assay with malonomicin, Botrytis cinerea, 72 hrs. Type of assay: cell-based. The following applies: line H malonomicin alone, concentrations in Table 8. Here is the method: A stock solution for compound of Formula I(a) was produced in DMSO (max. 10 mg/ml). Malonomicin was produced according to Law et al, 2018 (Nature Catalys is |VOL 1|DECEMBER 2018|977-984). A stock solution of malonomicin was produced in water plus 0.025% Tween® 20.
Assays to test efficacy of mixtures of the lipopeptide compound of Formula I(a) in combination with malonomicin on the control of fungal pathogens in a liquid culture assay were designed for a 96well plate as outlined in table 1:
The 96 well plate design allows to compare disease control of the mixture with disease control of the respective single compound at the same rate.
A master plate with 10× concentrated solution of the compound stock solutions diluted in water plus 0.025% Tween® 20 was prepared. The concentration of DMSO (from the stock of compound of Formula (a)) and Tween® 20 was kept constant in all cells of the master plate. 10 μl was transferred from the master plate to a 96well test plate. The nutrient broth containing the fungal spores/mycelia fragments was then added to the test plate to give an end concentration of 1× for the tested compounds (as outlined in Table 8). The test plates were incubated in the dark at 24 °C and 96% rh. The inhibition of fungal growth was determined photometrically after ca 3 days, and percent fungal growth reduction relative to the untreated check was calculated.
Botrytis cinerea (EPPO Code: BOTRCI)
Conidia of the fungus from cryogenic storage were directly mixed into nutrient broth (Vogel's minimal media).

Each structure is given as a SMILES string.

As for `NC[C@@H]1NC(=O)C(C(=O)CC(NC(=O)[C@@H](N)CO)(C(=O)O)C(=O)O)=C1O` [malonomicin, {[(2S)-2-amino-3-hydroxypropanoyl]amino}{2-[(5S)-5-(aminomethyl)-4-hydroxy-2-oxo-2,5-dihydro-1H-pyrrol-3-yl]-2-oxoethyl}malonic acid], the “control of fungal growth (% reduction of symtoms on the leaf segment as compared to untreated check)” value in the assay with Puccinia recondita (column (2): malonomicin 200 ppm) was 100%; in the assay on Puccinia recondita (column (3): malonomicin 20 ppm), 100%; in the assay with Puccinia recondita (column (4): malonomicin 6.67 ppm), 80%; with Puccinia recondita (column (5): malonomicin 2.22 ppm), 10%; in the assay with Puccinia recondita (column (6): malonomicin 0.74 ppm), 0%. In addition, the “control of fungal growth (% reduction of growth in the test well as compared to untreated check)” value amounted to 70% with Botrytis cinerea (plate column (2), highest malonomicin concentration, lines A-G with compound of Formula I(a) dilution series); 70% in the assay with Botrytis cinerea (plate column (3) of malonomicin dilution series, lines A-G with compound of Formula I(a)); 70% in the assay on Botrytis cinerea (plate column (4) of malonomicin dilution series, lines A-G with compound of Formula I(a)); 70% in the assay on Botrytis cinerea (plate column (5) of malonomicin dilution series, lines A-G with compound of Formula I(a)); 70% in the assay with Botrytis cinerea (plate column (6) of malonomicin dilution series, lines A-G with compound of Formula I(a)); 20% in the assay on Botrytis cinerea (plate column (7) of malonomicin dilution series, lines A-G with compound of Formula I(a)). Moreover, the “control of fungal growth (% reduction of growth in the test well as compared to untreated check)” value in the assay on Botrytis cinerea (plate column (8) of malonomicin dilution series, lines A-G with compound of Formula I(a)) was determined as 0%; in the assay with Botrytis cinerea (plate column (9) of malonomicin dilution series, lines A-G with compound of Formula I(a)), 0%; with Botrytis cinerea (plate column (10) of malonomicin dilution series, lines A-G with compound of Formula I(a)), 0%; with Botrytis cinerea (plate column (11), lowest malonomicin concentration, lines A-G with compound of Formula I(a)), 0%.

The record behind these values is US20260347403A1, “FUNGICIDAL COMPOUND” (priority 2022, published 2026).
